Data from patent publication US20100168102A9, “Amide Derivatives as Kinase Inhibitors” (Devgen NV, priority 2005, published 2010).
Like-named read-outs stand apart in the source and are kept apart here.

Assays:
human ROCKα/ROCKII mix = target: T1, human ROCKα/ROCKII mix (Homo sapiens, UniProt O75116); assay: Biochemical assay for ROCK (fluorescence polarization, ROCK IMAP Kit)
T1 construct: purchased Upstate Biotechnology 14-451

PKC epsilon = target: T2, PKC epsilon (Homo sapiens, UniProt Q02156); assay: Biochemical assay for PKC epsilon (fluorescence polarization, Protein Kinase C Assay Kit, Red); conditions: read-out: IC50 μM PKCε
T2 construct: purchased Invitrogen P2282
T2 sequence (Q02156 1-737): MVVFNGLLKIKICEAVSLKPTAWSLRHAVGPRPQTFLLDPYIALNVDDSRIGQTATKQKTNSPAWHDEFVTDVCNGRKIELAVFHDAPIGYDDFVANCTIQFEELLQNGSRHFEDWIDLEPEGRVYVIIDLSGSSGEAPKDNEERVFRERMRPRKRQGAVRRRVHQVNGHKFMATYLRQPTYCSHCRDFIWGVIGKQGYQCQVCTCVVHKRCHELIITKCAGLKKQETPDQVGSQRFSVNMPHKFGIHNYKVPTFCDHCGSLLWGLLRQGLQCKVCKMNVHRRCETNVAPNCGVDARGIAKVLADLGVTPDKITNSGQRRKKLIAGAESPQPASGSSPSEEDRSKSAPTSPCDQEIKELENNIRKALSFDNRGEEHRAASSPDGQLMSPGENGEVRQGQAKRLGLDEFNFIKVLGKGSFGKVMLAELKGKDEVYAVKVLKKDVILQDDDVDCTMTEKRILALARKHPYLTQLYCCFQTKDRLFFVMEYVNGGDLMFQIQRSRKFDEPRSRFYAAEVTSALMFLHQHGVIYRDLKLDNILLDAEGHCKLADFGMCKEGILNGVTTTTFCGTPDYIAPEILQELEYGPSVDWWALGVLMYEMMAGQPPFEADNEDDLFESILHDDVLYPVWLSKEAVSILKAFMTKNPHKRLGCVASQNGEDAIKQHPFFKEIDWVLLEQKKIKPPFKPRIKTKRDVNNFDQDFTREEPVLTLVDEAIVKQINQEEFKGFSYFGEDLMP
Summary of the method: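 Read-out was fluorescence-polarization competition between phosphorylated substrate and a rhodamine PKC tracer for an anti-phosphoserine antibody, added with EDTA stop after an 80 min room-temperature kinase reaction with ATP and protein substrate (Mg2+/Ca2+ buffer). Enzyme (10 ng/ml final) was preincubated with compound for 30 min.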

[1] = compounds of Formula XIV, Table 3
[2] = Table 2, compounds of Formula XIII

T1 sequence (O75116 11-552 limits assumed): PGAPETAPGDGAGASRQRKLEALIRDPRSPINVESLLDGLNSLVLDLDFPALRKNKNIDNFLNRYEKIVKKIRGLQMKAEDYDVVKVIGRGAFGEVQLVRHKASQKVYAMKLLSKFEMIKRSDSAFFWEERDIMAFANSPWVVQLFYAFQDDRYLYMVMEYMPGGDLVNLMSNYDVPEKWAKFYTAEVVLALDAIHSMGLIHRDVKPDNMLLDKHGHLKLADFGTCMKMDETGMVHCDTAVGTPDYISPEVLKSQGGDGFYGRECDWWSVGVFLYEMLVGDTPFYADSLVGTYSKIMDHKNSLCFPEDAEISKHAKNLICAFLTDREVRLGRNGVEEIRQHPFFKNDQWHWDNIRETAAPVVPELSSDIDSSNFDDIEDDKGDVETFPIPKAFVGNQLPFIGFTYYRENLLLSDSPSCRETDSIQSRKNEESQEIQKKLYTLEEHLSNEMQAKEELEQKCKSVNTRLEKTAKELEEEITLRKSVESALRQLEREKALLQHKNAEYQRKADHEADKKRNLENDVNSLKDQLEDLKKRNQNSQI

IC50 (human ROCKα/ROCKII mix) [µM] | IC50 (PKC epsilon) [µM] | Compound | also measured
 |  | NC(CC(=O)NC1CCCc2ccccc21)c1ccc(C(=O)Nc2ccncc2)cc1 (single isomer, unassigned) [Compound 222] | IC50 (human ROCKα/ROCKII mix; [1]): 0.05 to 0.5 µM; IC50 (PKC epsilon; [1]): 5 to 50 µM
0.5 to 5 | 0.5 to 5 | CCNC(=S)NCC(N)c1ccc(C(=O)Nc2ccncc2)cc1 (centres unmarked) [Compound 1, 4-[1-amino-2-(3-ethyl-thioureido)-ethyl]-N-pyridin-4-yl-benzamide] | 
0.5 to 5 | 0.5 to 5 | CCCCNC(=O)NCC(N)c1ccc(C(=O)Nc2ccncc2)cc1 (centres unmarked) [Compound 2, 4-[1-amino-2-(3-butyl-ureido)-ethyl]-N-pyridin-4-yl-benzamide] | 
0.5 to 5 | 0.5 to 5 | CC(C)(C)NC(=O)NCC(N)c1ccc(C(=O)Nc2ccncc2)cc1 (centres unmarked) [Compound 3, 4-[1-amino-2-(3-tert-butyl-ureido)-ethyl]-N-pyridin-4-yl-benzamide] | 
0.5 to 5 | 0.5 to 5 | NC(CNC(=O)NC1CCCC1)c1ccc(C(=O)Nc2ccncc2)cc1 (centres unmarked) [Compound 4, 4-[1-amino-2-(3-cyclopentyl-ureido)-ethyl]-N-pyridin-4-yl-benzamide] | 
0.5 to 5 | 5 to 50 | NC(CNC(=O)NC1CCCCC1)c1ccc(C(=O)Nc2ccncc2)cc1 (centres unmarked) [Compound 5, 4-[1-amino-2-(3-cyclohexyl-ureido)-ethyl]-N-pyridin-4-yl-benzamide] | 
0.5 to 5 | 5 to 50 | CCOC(=O)CCNC(=O)NCC(N)c1ccc(C(=O)Nc2ccncc2)cc1 (centres unmarked) [Compound 6, 3-(3-{2-amino-2-[4-(pyridin-4-ylcarbamoyl)-phenyl]-ethyl}-ureido)-propionic acid ethyl ester] | 
0.05 to 0.5 | 0.5 to 5 | NC(CNC(=O)NCc1ccccc1)c1ccc(C(=O)Nc2ccncc2)cc1 (centres unmarked) [Compound 7, 4-[1-amino-2-(3-benzyl-ureido)-ethyl]-N-pyridin-4-yl-benzamide] | 
0.05 to 0.5 | 0.5 to 5 | Cc1ccc(CNC(=O)NCC(N)c2ccc(C(=O)Nc3ccncc3)cc2)cc1 (centres unmarked) [Compound 8, 4-{1-amino-2-[3-(4-methyl-benzyl)-ureido]-ethyl}-N-pyridin-4-yl-benzamide] | 
0.05 to 0.5 | 0.5 to 5 | NC(CNC(=S)Nc1ccccc1)c1ccc(C(=O)Nc2ccncc2)cc1 (centres unmarked) [Compound 11, 4-[1-amino-2-(3-phenyl-thioureido)-ethyl]-N-pyridin-4-yl-benzamide] | 
0.5 to 5 | 0.05 to 0.5 | Cc1ccccc1NC(=S)NCC(N)c1ccc(C(=O)Nc2ccncc2)cc1 (centres unmarked) [Compound 12, 4-[1-amino-2-(3-o-tolyl-thioureido)-ethyl]-N-pyridin-4-yl-benzamide] | 
0.05 to 0.5 | 0.05 to 0.5 | NC(CNC(=S)Nc1ccc(Cl)cc1)c1ccc(C(=O)Nc2ccncc2)cc1 (centres unmarked) [Compound 13, 4-{1-amino-2-[3-(4-chloro-phenyl)-thioureido]-ethyl}-N-pyridin-4-yl-benzamide] | 
0.5 to 5 | 0.5 to 5 | COc1ccc(NC(=S)NCC(N)c2ccc(C(=O)Nc3ccncc3)cc2)cc1 (centres unmarked) [Compound 14, 4-{1-amino-2-[3-(4-methoxy-phenyl)-thioureido]-ethyl}-N-pyridin-4-yl-benzamide] | 
0.5 to 5 | 5 to 50 | NC(CNC(=S)Nc1ccc(OC(F)(F)F)cc1)c1ccc(C(=O)Nc2ccncc2)cc1 (centres unmarked) [Compound 15, 4-{1-amino-2-[3-(4-trifluoromethoxy-phenyl)-thioureido]-ethyl}-N-pyridin-4-yl-benzamide] | 
0.5 to 5 | 0.5 to 5 | NC(CNC(=S)Nc1ccc(C(F)(F)F)cc1)c1ccc(C(=O)Nc2ccncc2)cc1 (centres unmarked) [Compound 16, 4-{1-amino-2-[3-(4-trifluoromethyl-phenyl)-thioureido]-ethyl}-N-pyridin-4-yl-benzamide] | 
0.05 to 0.5 | 0.05 to 0.5 | NC(CNC(=S)Nc1cccc2ccccc12)c1ccc(C(=O)Nc2ccncc2)cc1 (centres unmarked) [Compound 17, 4-[1-amino-2-(3-naphtalen-1-yl-thioureido)-ethyl]-N-pyridin-4-yl-benzamide] | 
0.5 to 5 | 5 to 50 | CC(C)(C)c1ccc(NC(=S)NCC(N)c2ccc(C(=O)Nc3ccncc3)cc2)cc1 (centres unmarked) [Compound 18, 4-{1-amino-2-[3-(4-tert-butyl-phenyl)-thioureido]-ethyl}-N-pyridin-4-yl-benzamide] | 

IC50 (human ROCKα/ROCKII mix) [µM] | IC50 (PKC epsilon) [µM] | Compound | also measured
0.05 to 0.5 | 0.5 to 5 | NC(CNC(=O)Nc1ccccc1F)c1ccc(C(=O)Nc2ccncc2)cc1 (centres unmarked) [Compound 20, 4-{1-amino-2-[3-(2-fluoro-phenyl)-ureido]-ethyl}-N-pyridin-4-yl-benzamide] | 
0.05 to 0.5 | 0.5 to 5 | CN(C)c1ccc(NC(=O)NCC(N)c2ccc(C(=O)Nc3ccncc3)cc2)cc1 (centres unmarked) [Compound 21, 4-{1-amino-2-[3-(4-dimethylamino-phenyl)-ureido]-ethyl}-N-pyridin-4-yl-benzamide] | 
0.5 to 5 | 0.5 to 5 | NC(CNC(=O)Nc1ccc(-c2ccccc2)cc1)c1ccc(C(=O)Nc2ccncc2)cc1 (centres unmarked) [Compound 22, 4-[1-amino-2-(3-biphenyl-4-yl-ureido)-ethyl]-N-pyridin-4-yl-benzamide] | 
0.05 to 0.5 | 0.5 to 5 | NC(CNC(=O)Nc1ccc2ccccc2c1)c1ccc(C(=O)Nc2ccncc2)cc1 (centres unmarked) [Compound 23, 4-[1-amino-2-(3-naphtalen-2-yl-ureido)-ethyl]-N-pyridin-4-yl-benzamide] | 
0.5 to 5 | 5 to 50 | CC(C)(C)c1ccc(NC(=O)NCC(N)c2ccc(C(=O)Nc3ccncc3)cc2)cc1 (centres unmarked) [Compound 24, 4-{1-amino-2-[3-(4-tert-butyl-phenyl)-ureido]-ethyl}-N-pyridin-4-yl-benzamide] | 
0.05 to 0.5 | 0.5 to 5 | Cc1ccccc1NC(=O)NCC(N)c1ccc(C(=O)Nc2ccncc2)cc1 (centres unmarked) [Compound 25, 4-[1-amino-2-(3-o-tolyl-ureido)-ethyl]-N-pyridin-4-yl-benzamide] | 
0.05 to 0.5 | 0.05 to 0.5 | Cc1cc(Cl)ccc1NC(=O)NCC(N)c1ccc(C(=O)Nc2ccncc2)cc1 (centres unmarked) [Compound 26, 4-{1-amino-2-[3-(4-chloro-2-methyl-phenyl)-ureido]-ethyl}-N-pyridin-4-yl-benzamide] | 
0.05 to 0.5 | 0.5 to 5 | NC(CNC(=O)Nc1cccc2ccccc12)c1ccc(C(=O)Nc2ccncc2)cc1 (centres unmarked) [Compound 28, 4-[1-amino-2-(3-naphtalen-1-yl-ureido)-ethyl]-N-pyridin-4-yl-benzamide] | 
0.05 to 0.5 | 0.5 to 5 | COc1cccc(NC(=O)NCC(N)c2ccc(C(=O)Nc3ccncc3)cc2)c1 (centres unmarked) [Compound 29, 4-{1-amino-2-[3-(3-methoxy-phenyl)-ureido]-ethyl}-N-pyridin-4-yl-benzamide] | 
0.05 to 0.5 | 0.5 to 5 | COc1ccc(NC(=O)NCC(N)c2ccc(C(=O)Nc3ccncc3)cc2)cc1 (centres unmarked) [Compound 30, 4-{1-amino-2-[3-(4-methoxy-phenyl)-ureido]-ethyl}-N-pyridin-4-yl-benzamide] | 
 |  | CC(=O)NCC(N)c1ccc(C(=O)Nc2ccncc2)cc1 (centres unmarked) [Compound 31, 4-(2-Acetylamino-1-amino-ethyl)-N-pyridin-4-yl-benzamide] | IC50 (human ROCKα/ROCKII mix; [2]): 0.5 to 5 µM; IC50 (PKC epsilon; [2]): 5 to 50 µM
 |  | CCCC(=O)NCC(N)c1ccc(C(=O)Nc2ccncc2)cc1 (centres unmarked) [Compound 32, 4-(1-Amino-2-butyrylamino-ethyl)-N-pyridin-4-y-benzamide] | IC50 (human ROCKα/ROCKII mix; [2]): 0.5 to 5 µM; IC50 (PKC epsilon; [2]): 0.5 to 5 µM
 |  | CCCCC(=O)NCC(N)c1ccc(C(=O)Nc2ccncc2)cc1 (centres unmarked) [Compound 33, 4-(1-Amino-2-pentanoylamino-ethyl)-N-pyridin-4-yl-benzamide] | IC50 (human ROCKα/ROCKII mix; [2]): 0.5 to 5 µM; IC50 (PKC epsilon; [2]): 0.5 to 5 µM
 |  | CC(C)CC(=O)NCC(N)c1ccc(C(=O)Nc2ccncc2)cc1 (centres unmarked) [Compound 34, 4-[1-Amino-2-(3-methyl-butyrylamino)-ethyl]-N-pyridin-4-yl-benzamide] | IC50 (human ROCKα/ROCKII mix; [2]): 0.5 to 5 µM; IC50 (PKC epsilon; [2]): 0.5 to 5 µM
 |  | CCC(C)C(=O)NCC(N)c1ccc(C(=O)Nc2ccncc2)cc1 (centres unmarked) [Compound 35, 4-[1-Amino-2-(2-methyl-butyrylamino)-ethyl]-N-pyridin-4-yl-benzamide] | IC50 (human ROCKα/ROCKII mix; [2]): 0.5 to 5 µM; IC50 (PKC epsilon; [2]): 0.5 to 5 µM
 |  | CC(C)CCC(=O)NCC(N)c1ccc(C(=O)Nc2ccncc2)cc1 (centres unmarked) [Compound 36, 4-[1-Amino-2-(4-methyl-pentanoylamino)-ethyl]-N-pyridin-4-yl-benzamide] | IC50 (human ROCKα/ROCKII mix; [2]): 0.5 to 5 µM; IC50 (PKC epsilon; [2]): 0.5 to 5 µM
 |  | NC(CNC(=O)C1CC1)c1ccc(C(=O)Nc2ccncc2)cc1 (centres unmarked) [Compound 39, 4-[1-Amino-2-(cyclopropanecarbonyl-amino)-ethyl]-N-pyridin-4-yl-benzamide] | IC50 (human ROCKα/ROCKII mix; [2]): 0.5 to 5 µM; IC50 (PKC epsilon; [2]): 0.5 to 5 µM
